This passage reports HbA1c and Weight gained results from patent publication US20150178471A1, “IMPROVED CLINICAL EFFECT OF PHARMACEUTICAL PRODUCTS USING COMMUNICATION TOOL AND LIFE-STYLE FACTORS” (SCIENTIFICMED SWEDEN AB, priority 2012, published 2015).

The conditions of the assay: no combination product.

Molecules are shown by their SMILES.

From the text: Development and test of a combination product based on the pharmaceutical Zoloft and a specifically adapted QFM, including life-style improving factors, with a dependent software application • a. Test objectives; improve cardiovascular and diabetes symptoms • b. Main intervention factors; • i. an improved level of physical activity • ii. increased awareness of food intake • iii. an increased well-being based on improved administration of Zoloft • c. Follow-up variables: Weight and HbA1c • d. Period of Time Using the Combination Product: Five Months. • e. Period of time using only the pharmaceutical, i.e. no combination product, prior to the period of using the combination product: Two months • f. Period of time using only the software application, i.e. no combination product, after the period of using the combination product: Two weeks
The used set of questions for the specific QFM, including life-style improving factors, in the combination product based on Zoloft was the following: • Adherence to Zoloft: • The patient was asked to answer a question whether or not he/she had been adherent to Zoloft, and which dose the patient had taken; “I have taken my Zoloft today with the dose 25 mg/50 mg/100 mg/150 mg or 200 mg”. • Physical activity: • The patient was asked initially to set up an individual goal with the purpose of achieving an increased effect. […]

For `CN[C@H]1CC[C@@H](c2ccc(Cl)c(Cl)c2)c2ccccc21` [Zoloft, Sertralin], the HbA1c entry (test period when the patient only was taking Zoloft (two months)) is given as “remained stable or slightly increased”. For the same molecule, the Weight gained (test period when the patient only was taking Zoloft) is 1-2%.
